Assay results: patent US6844443B2, “Benzimidazole derivatives, their production and use” (Takeda Pharmaceutical Company, Ltd., priority 1990, dated 2005)

Assay: Heat stability of solid forms (Experimental Example 1)
Format: physicochemical
Conditions: solid form of 1-(cyclohexyloxycarbonyloxy)ethyl ester
Text: 1-(Cyclohexyloxycarbonyloxy)ethyl 2-ethoxy-1-[[2′-(1 H-tetrazol-5-yl)biphenyl-4-yl]methyl]benzimidazole-7-carboxylate is usually purified by column chromatography on silica gel and the eluted fraction is concentrated to dryness to give amorphous powders. […] For solving this problem, the present inventors made extensive experiments on crystallization of the subject compound and discovered C-type crystalline form. […] The C-type crystal of the title compound has approximately the following lattice spacings: […]
In the case of `CCOc1nc2cccc(C(=O)OC(C)OC(=O)OC3CCCCC3)c2n1Cc1ccc(-c2ccccc2-c2nnn[nH]2)cc1` (centres unmarked) [C-type crystal], the “heat stability of solid form” value is reported as “stable by heat”. In the case of `CCOc1nc2cccc(C(=O)OC(C)OC(=O)OC3CCCCC3)c2n1Cc1ccc(-c2ccccc2-c2nnn[nH]2)cc1` (centres unmarked) [amorphous powders, 1-(Cyclohexyloxycarbonyloxy)ethyl 2-ethoxy-1-[[2′-(1 H-tetrazol-5-yl)biphenyl-4-yl]methyl]benzimidazole-7-carboxylate], the “heat stability of solid form” value is reported as “unstable by heat”.

Assay: not given
Conditions: not given
Compound `CCOc1nc2cccc(C(=O)OCOC(=O)C(C)C)c2n1Cc1ccc(-c2ccccc2-c2nnn[nH]2)cc1` [Working Example 53, Isobutyryloxymethyl 2-ethoxy-1-[[2′-(1 H-tetrazol-5-yl)biphenyl-4-yl]methyl]benzimidazole-7-carboxylate] has a melting point of 143 to 145 °C. Compound `CCOC(=O)OC(C)OC(=O)c1cccc2nc(OCC)n(Cc3ccc(-c4ccccc4-c4nnn[nH]4)cc3)c12` (centres unmarked) [Working Example 54, 1-(Ethoxycarbonyloxy)ethyl 2-ethoxy-1-[[2′-(1 H-tetrazol-5-yl)-biphenyl-4-yl]methyl]benzimidazole-7-carboxylate] has a melting point of 85 to 87 °C. Compound `CCOc1nc2cccc(C(=O)OC(C)OC(C)=O)c2n1Cc1ccc(-c2ccccc2-c2nnn[nH]2)cc1` (centres unmarked) [Working Example 55, 1-Acetoxyethyl 2-ethoxy-1-[[2′-(1 H-tetrazol-5-yl)biphenyl-4-yl]methyl]benzimidazole-7-carboxylate] has a melting point of 105 to 107 °C. `CCOc1nc2cccc(C(=O)OC(C)OC(=O)OC(C)C)c2n1Cc1ccc(-c2ccccc2)c(-c2nnn[nH]2)c1` (centres unmarked) [Working Example 56, 1-(Isopropoxycarbonyloxy)ethyl 2-ethoxy-1-[[2-(1 H-tetrazol-5-yl)biphenyl-4-yl]methyl]benzimidazole-7-carboxylate] gave a melting point of 74 to 76 °C. `CCOc1nc2cccc(C(=O)OCOC(=O)C3CCCCC3)c2n1Cc1ccc(-c2ccccc2-c2nnn[nH]2)cc1` [Working Example 58, Cyclohexylcarbonyloxymethyl 2-ethoxy-1-[[2′-(1 H-tetrazol-5-yl)biphenyl-4-yl]methyl]benzimidazole-7-carboxylate] gave a melting point of 140 to 142 °C. Work on `CCOc1nc2cccc(C(=O)OCOC(=O)/C=C/c3ccccc3)c2n1Cc1ccc(-c2ccccc2-c2nnn[nH]2)cc1` [Working Example 60, (E)-cinnamoyloxymethyl 2-ethoxy-1-[[2′-(1 H-tetrazol-5-yl)biphenyl-4-yl]methyl]benzimidazole-7-carboxylate] yielded a melting point of 146 to 147 °C. `CCOc1nc2cccc(C(=O)OCOC(=O)C3CCCC3)c2n1Cc1ccc(-c2ccccc2-c2nnn[nH]2)cc1` [Working Example 61, Cyclopentylcarbonyloxymethyl 2-ethoxy-1-[[2′-(1 H-tetrazol-5-yl)biphenyl-4-yl]methyl]benzimidazole-7-carboxylate] showed a melting point of 136 to 138 °C. `CCNc1nc2cccc(C(=O)OCOC(=O)C(C)(C)C)c2n1Cc1ccc(-c2ccccc2-c2nnn[nH]2)cc1` [Working Example 62, Pivaloyloxymethyl 2-ethylamino-1-[[2′-(1 H-tetrazol-5-yl)biphenyl-4-yl]methyl]benzimidazole-7-carboxylate] gave a melting point of 130 to 135 °C. `CCNc1nc2cccc(C(=O)OC(C)OC(=O)OC3CCCCC3)c2n1Cc1ccc(-c2ccccc2-c2nnn[nH]2)cc1` (centres unmarked) [Working Example 63, 1-(Cyclohexyloxycarbonyloxy)ethyl 2-ethylamino-1-[[2′-(1 H-tetrazol-5-yl)biphenyl-4-yl]methyl]benzimidazole-7-carboxylate] showed a melting point of 149 to 152 °C.
